Test results as given in patent US12097262B2, “mTORC1 inhibitors” (THE REGENTS OF THE UNIVERSITY OF CALIFORNIA, priority 2014, dated 2024).

Columns and labels:
[1] = Effect on blood glucose level in mice; settings: mice (n=3), intraperitoneal, 1, 3 mg/kg
Text: Effect on blood glucose level. […] Blood glucose levels (mg/dL) were monitored.

[2] = test system: mTORC1 and mTORC2 downstream signaling (pS6, p4E-BP1, pAkt S473); test: Downstream signaling of mTOR by immunoblotting, dose dependence, HCT-15 and SNU-449 cells; type: cell-based, human; settings: immunoblot at 3 h after compound treatment
Procedure: Downstream signaling of mTOR was tested using an immunoblotting method at 3 h after compound treatment.

mTORC1 and mTORC2 = test: Western blot analysis of mTORC1/mTORC2 inhibition in MCF-7 cells; type: cell-based; settings: 4 hours, western blot (FIG. 13A)
Procedure: FIGS. 13A-13B. FIG. 13A: MCF-7 cells were treated for 4 hours with E1035 and M1071 before harvesting. FIG. 13B: SNU-449 cells were treated with 3 hours with E1010 before harvesting. Cells were lysed and blotted for the indicated proteins. M1071 has the narrowest concentration range between mTORC1 and mTORC2 inhibition. The concentration range between mTORC1 and mTORC2 inhibition widens for E1035.
Cell Culture and Western Blot Analysis. Cells were grown in 6-well plates and treated with inhibitor at the indicated concentrations or with vehicle (0.1% DMSO). Treated cells were lysed, and lysates were resolved by SDS-PAGE, transferred to nitrocellulose and blotted. All antibodies were purchased from Cell Signaling Technology.

HCT-15 = test: Cell viability assay (CellTiter-Glo), HCT-15; type: cell-based, human; settings: Homo sapiens; for EC50: 72 h after compound treatment
Procedure: (§1) The cells were grown in appropriate medium (vender recommended) supplemented with 10% heat-inactivated fetal bovine serum (FBS), in tissue culture dishes placed in a humidified incubator maintained at 37° C. in an atmosphere of 5% CO2 and 95% air.
(§2) Cell viability assay. Cells were seeded in a 96-multiwell plate at 3000-4000 cells per well in medium containing FBS and cells were incubated at 37° C. overnight. After 18-20 h, compounds in 10×DMSO solution (n=3) were added to the cells and were incubated for additional 3 days in a humidified incubator in an atmosphere of 5% CO2 and 95% air. After treatment of Cell Titer-Glo® luminescent cell viability assay reagent (Promega Corporation, Madison, WI USA), the luminescence value was recorded using SpectraMax M5 Multi-Mode Microplate Readers (Molecular Devices, LLC, Sunnyvale, CA USA). Concentration response curves were generated on GraphPad Prism (GraphPad Software, La Jolla, CA USA) by calculating the decrease in luminescence values in compound-treated samples relative to the DMSO controls.
(§3) Anti-proliferative effects of compounds were evaluated in human colorectal cancer HCT-15 cells (mutation: KRAS, PIK3CA), human hepatocellular carcinoma SNU-449 (mutation: TP53, CDKN2A), SNU-398 (mutation: CTNNB 1), SNU-182 (mutation: TP53) and renal adenocarcinoma 786-O (mutation: VHL, PTEN, TP53, CDKN2A) in 72 h after compound treatment.

SNU-449 = test: Cell viability assay (CellTiter-Glo), SNU-449; settings: Homo sapiens; for EC50: SNU-449, 72 h, read-out: EC50 (nM) SNU-449
Procedure: as §1, §2, §3

786-O = test: Cell viability assay (CellTiter-Glo), 786-O; type: cell-based, human; settings: Homo sapiens; for EC50: 786-0, 72 h after compound treatment
Procedure: as §1, §2, §3

SNU-398 = test: Cell viability assay (CellTiter-Glo), SNU-398; type: cell-based, human; settings: Homo sapiens; for EC50: 72 h after compound treatment
Procedure: as §1, §2, §3

SNU-182 = test: Cell viability assay (CellTiter-Glo), SNU-182; type: cell-based, human; settings: Homo sapiens; for EC50: 72 h after compound treatment
Procedure: as §1, §2, §3

MCF-7 cells = test: Cell proliferation assay (CellTiter-Glo, 72 h), MCF-7 cells; type: cell-based; settings: 72 hours (FIG. 14B)
Procedure: FIGS. 14A-14B. FIG. 14A: 786-O cells were treated for 72 hours with the indicated drugs before cell viability was measured. […] FIG. 14B: MCF-7 cells were treated for 72 hours with the indicated drugs before cell viability was measured.
Cell proliferation assays. Cells grown in 96-well plates were treated with inhibitor in triplicate or vehicle (0.1% DMSO). After 72 h, cell viability was assessed with the […]-GLO® Luminescent Cell Viability Assay (Promega). Cell proliferation curves were generated using Prism.

[3] = test system: TORC1 and TORC2 outputs (p4E-BP1, pS6); test: Drug washout experiment in SNU-449 cells; type: cell-based, human; settings: 30 nM for 3 h, then washout
Procedure: Cellular Signaling Effects of Class mTOR Inhibitors. Cells were seeded in 60 mm cell culture dishes and incubated 1-2 days until 70-90% confluency. Cells were treated with compound solution in DMSO (1000×) and incubated at 37° C. in a 5% CO2 humidified incubator for a given length of time. […] After incubation for more than 1 h with a blocking buffer at room temperature, membranes were labeled with primary antibodies by overnight incubation at 4° C., followed by 1 hour incubation with horseradish peroxidase-conjugated (HRP-conjugated) secondary antibodies at room temperature. […] Nitrocellulose membranes were exposed with SuperSignal® West Pico Chemiluminescent Substrate or Femto Maximum Sensitivity Substrate (Thermo Fisher Scientific Inc., Waltham, MA USA) and signals were recorded on a CL-Xposure film (Thermo Fisher Scientific Inc., Waltham, MA USA).
Drug Washout Experiment. SNU-449 cells were treated with 30 nM of compounds for 3 h. The medium was aspirated out and cells were washed with fresh 10% FBS in RPMI1640 medium. Then, cells were incubated with fresh 10% FBS in RPMI1640 medium at 37° C. for described time period.

[4] = test system: phospho-4E-BP1, pS6, phospho-S473 of Akt in 786-O xenograft tumor; test: Pharmacodynamic study in human renal cancer 786-O xenograft tumor in mice; type: in vivo
Procedure: Pharmacodynamic studies of M1071 in human renal cancer 786-O xenograft tumor in mice. […] Tumor samples were collected at 3 h after drug administration. For the MWF group, M-1071 was administered once daily every other day. At 4 h after the last administration, tumor samples were collected. After the freezing tumor samples, they were homogenized and treated with RIPA buffer containing phosphatase inhibitor and protease inhibitor. The following western blotting analysis were conducted in a similar way to abovementioned method.

[5] = test system: mTORC1 and mTORC2 signaling (pS6, p4E-BP1, pAkt S473); test: Time-course effects on mTORC1 and mTORC2 signaling in SNU-449; type: cell-based, human; settings: 0.33-24 h
Procedure: Cellular Signaling Effects of Class mTOR Inhibitors. Cells were seeded in 60 mm cell culture dishes and incubated 1-2 days until 70-90% confluency. Cells were treated with compound solution in DMSO (1000×) and incubated at 37° C. in a 5% CO2 humidified incubator for a given length of time. Whole cell lysates were prepared using RIPA buffer (R^3792) (TEKnova, Hollister, CA USA) with a phosphatase inhibitor cocktail tablet PhosStop and a protease inhibitor cocktail tablet cOmplete Mini (Roche Diagnostics GmbH, Mannheim, Germany). Cell lysates (based on a certain amount of protein determined by Pierce BCA Protein Assay Kit (PI-23225) (Thermo Fisher Scientific Inc., Waltham, MA USA)) were electrophoresed using a Criterion Tris-HCl gel 4-20% (Bio-Rad Laboratories, Hercules, CA USA) and transferred to a nitrocellulose membrane (162-0115) (Bio-Rad Laboratories, Hercules, CA USA). After incubation for more than 1 h with a blocking buffer at room temperature, membranes were labeled with primary antibodies by overnight incubation at 4° C., followed by 1 hour incubation with horseradish peroxidase-conjugated (HRP-conjugated) secondary antibodies at room temperature. The following antibodies were used for immunoblot: phospho-Akt (S473) (#9271), phospho-Akt (T308) (#2965), total-Akt (#9272), phospho-S6 (Ser240/Ser244) (#2215L), S6 ribosomal protein (#2217), phospho-4E-BP1 (T37/T46) (#2855), total 4E-BP1 (#9644) (Cell Signaling Technology, Inc., Danvers, MA USA), FKBP12 (sc-28814) mouse β-actin (sc-8432) (Santa Cruz Biotechnology, Inc., Dallas, Texas USA), anti-rabbit IgG conjugated with horseradish peroxidase (HRP) (#7074), and anti-mouse IgG conjugated with HRP (#7076) (Cell Signaling Technology, Inc., Danvers, MA USA). Nitrocellulose membranes were exposed with SuperSignal® West Pico Chemiluminescent Substrate or Femto Maximum Sensitivity Substrate (Thermo Fisher Scientific Inc., Waltham, MA USA) and signals were recorded on a CL-Xposure film (Thermo Fisher Scientific Inc., Waltham, MA USA).

[6] = clinical trials; cited from earlier work

Question: What does the source list for `CO[C@H]1C[C@@H]2CC[C@@H](C)[C@@](O)(O2)C(=O)C(=O)N2CCCC[C@H]2C(=O)O[C@H]([C@H](C)C[C@@H]2CC[C@@H](OCCOCc3cn(CCOCCOCCOCCOCCOCCOCCOCCOCCC(=O)NCCCCn4nc(-c5ccc6oc(N)nc6c5)c5c(N)ncnc54)nn3)[C@H](OC)C2)CC(=O)[C@H](C)/C=C(\C)[C@@H](O)[C@@H](OC)C(=O)[C@H](C)C[C@H](C)/C=C/C=C/C=C/1C` [Compound M-1071, 40-O-(2-((1-(32-(4-amino-3-(2-aminobenzo[d]oxazol-5-yl)-1H-pyrazolo[3,4-d]pyrimidin-1-yl)-27-oxo-3,6,9,12,15,18,21,24-octaoxa-28-azadotriacontyl)-1H-1,2,3-triazol-4-yl)methoxy)ethyl)-rapamycin]?
Answer: blood glucose level [1]: no increase in blood glucose levels; mTORC1/2 downstream inhibition (pS6, p4E-BP1 and pAkt S473) [2]: stronger inhibition of mTORC1 signaling (pS6 and p4E-BP1) compared to mTORC2 downstream Akt S473 phosphorylation; p4E-BP1 inhibition [2]: complete p4E-BP1 inhibition at drug concentrations in which pAkt S473 is not inhibited; concentration range between mTORC1 and mTORC2 inhibition (mTORC1 and mTORC2): narrowest; mTORC2 inhibition (mTORC1 and mTORC2): also inhibits mTORC2; EC50 (HCT-15): < 10 nM; inhibition at 10 µM (HCT-15; read-out: % inhibition at 10 μM HCT-15, 10 μM): 50 to 100%; EC50 (SNU-449): < 10 nM; inhibition at 10 µM (SNU-449; SNU-449, read-out: % inhibition at 10 μM SNU-449): 25 to 50%; EC50 (786-O): < 10 nM; inhibition at 10 µM (786-O; 786-0, read-out: % inhibition at 10 μM 786-O, 10 μM): 25 to 50%; EC50 (SNU-398): < 10 nM; inhibition at 10 µM (SNU-398; read-out: % inhibition at 10 μM SNU-398, 10 μM): 50 to 100%; EC50 (SNU-182): < 10 nM; inhibition at 10 µM (SNU-182; read-out: % inhibition at 10 μM SNU-182, 10 μM): 25 to 50%; effects on cell proliferation (MCF-7 cells): potent effects on cell proliferation; sustained inhibitory effect on p4E-BP1 after washout [3]: at least 2 h; sustained inhibitory effect on pS6 after washout [3]: at least 4 h; inhibition of pS6 and p4EBP-1 in tumor ([4]; 5 mg/kg): complete inhibition; inhibition of phospho-S473 of Akt in tumor ([4]; highest dosing of 5 mg/kg): slight; Phosphorylation of S6 in tumor ([4]; intraperitoneal): inhibited; inhibition against phospho-4E-BP1 in tumor ([4]; intraperitoneal, tumor collected 3 h after administration): dose dependent inhibition; p4E-BP1 inhibition, time course [5]: continuous complete inhibition of TORC1 outputs within 3-24 h; phosphorylation of Akt S473, time course [5]: transient feedback activation on Akt S473 at 1 and 3 h, and then a slight inhibition was observed at 24 h

Question: With `CC(C)n1nc(-c2ccc3oc(N)nc3c2)c2c(N)ncnc21` [MLN0128, reference compound] as the compound, how does the “mTORC1/2 downstream inhibition (pS6, p4E-BP1 and pAkt S473)” value [2] read?
Answer: pan-mTORC1/2 downstream inhibition

Question: And the EC50 (HCT-15)?
Answer: 50 to 100 nM

Question: And the EC50 (SNU-449)?
Answer: 10 to 50 nM

Question: What about the EC50 (786-O) of the same compound?
Answer: 50 to 100 nM

Question: What about the EC50 (SNU-398) of the same compound?
Answer: 10 to 50 nM

Question: And the EC50 (SNU-182)?
Answer: 50 to 100 nM

Question: And the dose limiting toxicity [6]?
Answer: Grade ≥3 hyperglycemia

Question: What about the “time until inhibitory effects disappeared after washout” value [3] of the same compound?
Answer: ≤ 1 h

Question: And the “p4E-BP1 inhibition, time course” value [5]?
Answer: completely inhibited p4E-BP1 in early onset (0.33-1 h) and then partial phosphorylation of 4E-BP1 was observed after 3 h to 24 h

Question: And the “phosphorylation of Akt S473, time course” value [5]?
Answer: blocked phosphorylation of pAkt S473 continuously during 0.33-24 h
